Measured values: ChEMBL document CHEMBL1156342, “Five new diprenylated flavonols from the leaves of Broussonetia kazinoki” (2001)
Values after ≈ are worked out from the molar mass of the structure shown.

Tests used:
Type in all cases: functional
KB = assay: Cytotoxicity against human KB cells after 5 days by MTT assay; conditions: 120 h, read-out: ED50 (the source's name)
HCT-8 = assay: Cytotoxicity against human HCT8 cells after 5 days by MTT assay; conditions: HCT-8, 120 h, read-out: ED50 (the source's name)
A549 = assay: Cytotoxicity against human A549 cells after 5 days by MTT assay; conditions: A549, 120 h, read-out: ED50 (the source's name)

Compound: C=CC(C)(C)c1c(O)cc(O)c2c(=O)c(O)c(-c3cc(O)c4c(c3)C=CC(C)(C)O4)oc12 [BROUSSONOL A]
- EC50 (KB): > 10 µg/mL
- EC50 (HCT-8): 9.1 µg/mL (≈ 20.8 µM)
- EC50 (A549): 8.74 µg/mL (≈ 20 µM)

Compound: CC1Oc2cc(O)c3c(=O)c(O)c(-c4cc(O)c5c(c4)C=CC(C)(C)O5)oc3c2C1(C)C (stereo unspecified) [BROUSSONOL B]
- EC50 (KB): > 10 µg/mL
- EC50 (HCT-8): 8.8 µg/mL (≈ 20.2 µM)
- EC50 (A549): 5.52 µg/mL (≈ 12.6 µM)

Compound: CC(C)=CCc1cc(-c2oc3c4c(cc(O)c3c(=O)c2O)OC(C)C4(C)C)cc(O)c1O (stereo unspecified) [BROUSSONOL C]
- EC50 (KB): > 10 µg/mL
- EC50 (HCT-8): 9.63 µg/mL (≈ 22 µM)
- EC50 (A549): 7.77 µg/mL (≈ 17.7 µM)

Compound: CC(C)=CCc1cc(-c2oc3c(CC=C(C)C)c(O)cc(O)c3c(=O)c2O)cc(O)c1O [BROUSSONOL D]
- EC50 (KB): 4.15 µg/mL (≈ 9.46 µM)
- EC50 (HCT-8): > 10 µg/mL
- EC50 (A549): > 10 µg/mL

Compound: CC(C)=CCc1cc(-c2oc3cc(O)c(CC=C(C)C)c(O)c3c(=O)c2O)cc(O)c1O [BROUSSONOL E]
- EC50 (KB): > 10 µg/mL
- EC50 (HCT-8): > 10 µg/mL
- EC50 (A549): > 10 µg/mL

Compound: CC(C)=CCc1c(CCCc2ccc(O)cc2O)cc(O)c(O)c1CC=C(C)C [KAZINOL F]
- EC50 (KB): > 10 µg/mL
- EC50 (HCT-8): > 10 µg/mL
- EC50 (A549): > 10 µg/mL

Compound: COc1cc(O)ccc1CCCc1cc(O)c(O)c(CC=C(C)C)c1CC=C(C)C [KAZINOL J]
- EC50 (KB): > 10 µg/mL
- EC50 (HCT-8): > 10 µg/mL
- EC50 (A549): > 10 µg/mL
